One compound from PMC4467461, “Small-molecule activation of SERCA2a SUMOylation for the treatment of heart failure” (Nature Communications, 2015) can be followed below.

Test [1] has as its target T1, Recombinant human SUMO-specific E1 (Homo sapiens, UniProt Q9UBT2).
T1 construct: purchased R&D Systems
Briefly: SUMO E1 ATP hydrolysis, fluorogenic pyrophosphate assay. Type of test: biochemical. Particulars: E1 0.05 μM, Ubc9 0.25 μM, SUMO-1 12.5 μM, ATP 1 mM, 30 min at 37 °C; read-out: ATP-dependent activation of SUMO E1, EC50. Here is the method:
(§1) Figure 3 SUMO-specific activating enzyme, E1, is a direct target of N106. Mechanism of action of N106 on individual steps in the SUMOylation cascade in vitro. (a) Inorganic pyrophosphate resulting from ATP hydrolysis in E1-catalysed SUMO-1 activation in the presence of increasing concentration of N106 compound was assessed by fluorogenic pyrophosphate assay kit. Recombinant human SUMO-specific E1 (0.05 μM), human Ubc9 (0.25 μM), human SUMO-1 (12.5 μM) and ATP (1 mM) were incubated with increasing concentration of N106 for 30 min at 37 °C and quantified using a fluorescence microplate reader. (b) The SAE2-SUMO-1 conjugation was detected followed by western blotting with anti-SAE2 antibodies. […] (e) ATP hydrolytic activity of WT and mutant SUMO E1 are determined. (f) The E1-SUMO-1 conjugation was detected followed by western blot analysis with anti-SAE2 antibody. *The SAE2-SUMO-1 conjugated bands. […]
Biochemical activity of SUMO-specific E1 enzymes was examined by ATPase assay and in-vitro gel-shifting assays. ATP hydrolysis activity of E1 enzymes was measured by using pyrophosphate assay kit (Abcam Inc.). […] The E1-thioester formation was analysed in reaction mixtures containing 0.05 μM E1, 12.5 μM SUMO-1 and 1 mM ATP with N106 or DMSO. The E1-dependent E2-SUMO-1 thioester formation was assessed using reaction containing 0.05 μM E1, 0.25 μM E2, 12.5 μM SUMO-1 and 1 mM ATP with N106 or DMSO. […]

A further test addresses T2, SUMO E1 (Homo sapiens, UniProt Q9UBE0+Q9UBT2).
T2 construct: purchased R&D Systems
T2 sequence (Q9UBE0 1-346): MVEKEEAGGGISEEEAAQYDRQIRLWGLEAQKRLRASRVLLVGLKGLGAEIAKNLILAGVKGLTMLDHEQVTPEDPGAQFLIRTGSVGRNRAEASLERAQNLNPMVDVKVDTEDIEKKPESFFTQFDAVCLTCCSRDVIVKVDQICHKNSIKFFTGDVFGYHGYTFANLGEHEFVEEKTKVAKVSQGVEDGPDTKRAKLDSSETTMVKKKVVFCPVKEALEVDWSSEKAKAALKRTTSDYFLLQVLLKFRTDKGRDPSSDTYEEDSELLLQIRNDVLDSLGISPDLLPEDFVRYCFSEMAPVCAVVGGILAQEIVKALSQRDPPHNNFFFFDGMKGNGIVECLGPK
T2 sequence (Q9UBT2 1-640): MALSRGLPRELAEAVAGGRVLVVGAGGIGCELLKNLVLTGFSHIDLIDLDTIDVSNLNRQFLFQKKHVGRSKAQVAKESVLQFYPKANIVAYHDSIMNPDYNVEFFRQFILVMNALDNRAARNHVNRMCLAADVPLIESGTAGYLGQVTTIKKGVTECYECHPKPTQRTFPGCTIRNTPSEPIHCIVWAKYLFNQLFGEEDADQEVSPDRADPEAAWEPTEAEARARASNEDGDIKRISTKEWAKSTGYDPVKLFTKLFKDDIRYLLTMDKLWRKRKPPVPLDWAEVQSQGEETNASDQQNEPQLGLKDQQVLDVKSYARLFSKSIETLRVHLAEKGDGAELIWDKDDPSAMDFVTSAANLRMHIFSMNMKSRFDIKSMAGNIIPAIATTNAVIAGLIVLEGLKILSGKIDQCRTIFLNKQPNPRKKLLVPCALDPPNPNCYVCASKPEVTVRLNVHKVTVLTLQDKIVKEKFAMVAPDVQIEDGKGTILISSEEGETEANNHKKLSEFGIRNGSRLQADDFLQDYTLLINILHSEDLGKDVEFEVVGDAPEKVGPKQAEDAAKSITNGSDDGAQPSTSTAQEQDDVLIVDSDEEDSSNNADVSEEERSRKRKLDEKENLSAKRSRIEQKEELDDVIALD
The test can be described thus: In-vitro E1-SUMO-1 and E1-dependent E2-SUMO-1 thioester formation (gel shift / western blot). Type of test: biochemical. The protocol:
as §1, with “antibodies. SUMO E1 (0.05 μM), SUMO-1 (12.5 μM) and ATP (1 mM) were co-incubated with increasing concentration of N106 for 30 min at 37 °C. The reaction mixtures were separated on 7.5% SDS–PAGE gel under non-reducing conditions. (c) E2-SUMO-1 conjugation was visualized by western blotting with anti-Ubc9 antibody. SUMO E1 (0.05 μM), Ubc9 (0.25 μM), SUMO-1 (12.5 μM) and ATP (1 mM) were incubated without or with increasing concentration of N106 for 30 min at 37 °C.” for “antibodies.”
Biochemical activity of SUMO-specific E1 enzymes was examined by ATPase assay and in-vitro gel-shifting assays. ATP hydrolysis activity of E1 enzymes was measured by using pyrophosphate assay kit (Abcam Inc.). […] The E1-thioester formation was analysed in reaction mixtures containing 0.05 μM E1, 12.5 μM SUMO-1 and 1 mM ATP with N106 or DMSO. The E1-dependent E2-SUMO-1 thioester formation was assessed using reaction containing 0.05 μM E1, 0.25 μM E2, 12.5 μM SUMO-1 and 1 mM ATP with N106 or DMSO. Assays were incubated at 37 °C for 30 min and were mixed with non-reducing sample buffer, and analysed in non-reducing condition. Western blotting using antibodies against SAE2 and Ubc9 detected the SUMO conjugations. […]
Background: Mobility shift assays separate free from complexed probe on a gel.

On to `COc1ccc(-c2nnc(Nc3nc4c(OC)cccc4s3)o2)cc1` [Compound N106, N-(4-methoxybenzo[d]thiazol-2-yl)-5-(4-methoxyphenyl)-1,3,4-oxadiazol-2-amine], for which the EC50 in test [1] came to 2450 ± 130 nM. Moreover, the “maximal tolerated doses for in-vitro thioester formation between the SUMO E1 and SUMO-1” value at SUMO E1 (30 min at 37 °C) is about 20 µM. Besides, the “SUMO-1 conjugation to SUMO E1 and E1-dependent thioester bond formation between SUMO E2 and SUMO-1” value is “less pronounced” at SUMO E1 (at 50 μM concentration) and “inhibited” on SUMO E1 (at over 100 μM concentration).

By EC50 is commonly meant the concentration that produces a half-maximal response.
